The values below come from patent US11229224B2, “Phytochemical compositions used as disinfectants and food preservatives” (priority 2012, dated 2022).

One data set concerns S. Montevideo. The note with it: 500 μl AITC; cited from earlier work.
The next data set deals with soybean seeds. The data set can be described thus: Toxic effect on seed germination (FIGS. 1 to 6). The data set is classed as in vivo, soybean seeds (Vigna radiata L). Here is the method:
Therefore, a study comparing the toxic effect of hypochlorite (1,000 and 10,000 ppm), hibiscus vegetal extract and acetic acid was performed, yielding the results shown in FIGS. 1 to 6.

The test system of another data set is native flora of alfalfa. The data set can be described thus: Total count in non-inoculated alfalfa seed after disinfection. In kind it is cell-based. Here is the method: (§1) A comparison between the activity of aqueous extract and that of hypochlorite (1,000 and 10,000 ppm) was performed in non-inoculated seed. A total count was carried out in all cases.
The next data set relates to Salmonella sp. The note with it: submerging sprouts into 100 and 200 ppm hypochlorite solutions; cited from earlier work.
A further data set has as its system native flora of soybeans. The data set can be described thus: Total count in non-inoculated soybean seed after disinfection. The data set is classed as cell-based. Here is the method: as §1
Another data set concerns toxigenic fungus. The note with it: in food; cited from earlier work.
The test system of the next data set is most pathogens. The note with it: in food; cited from earlier work.
The next data set has as its system almost all flora. The note with it: in food, within reasonable elevated limits of initial load; cited from earlier work.
The next data set concerns V. cholerae O1. The data set can be described thus: Diffusion technique, inhibition zone on agar. The data set is classed as cell-based, Vibrio cholerae O1. The note with it: 1:10 dilution of aqueous hibiscus extract, 10 μL on plate, 35±1° C., 24 h. Here is the method:
(§2) This procedure was repeated twice. […] Finally, each strain was 10-fold diluted with ISS.
(§3) 100 μL from the first dilution of the respective pathogen culture were inoculated in AST plates. Inoculum was completely distributed on agar surface by the surface extension technique. From the dry extract, a 10% solution of hibiscus calyxes was prepared with distilled water. 10 μL aliquots of this extract were placed on each inoculated plate. Four repetitions were carried out. After the extract was absorbed by agar the plates were incubated at 35±1° C. for 24 h. Finally, the diameter of each inhibition zone was measured on the inoculated surface.

In the next data set the test system is L. monocytogenes. In words: Diffusion technique, inhibition zone on agar. The note with it: 1:10 dilution of aqueous hibiscus extract, 10 μL on plate, 35±1° C., 24 h. The data set is classed as cell-based, Listeria monocytogenes. Here is the method:
as §2, §3

In a further data set the test system is S. aureus. The data set can be described thus: Diffusion technique, inhibition zone on agar. In kind it is cell-based, Staphylococcus aureus. The note with it: 1:10 dilution of aqueous hibiscus extract, 10 μL on plate, 35±1° C., 24 h. Here is the method:
as §2, §3

Another data set relates to S. flexneri. In words: Diffusion technique, inhibition zone on agar. In kind it is cell-based, Shigella flexneri. The note with it: 1:10 dilution of aqueous hibiscus extract, 10 μL on plate, 35±1° C., 24 h. On the procedure: as §2, §3
The test system of a further data set is S. choleraesuis. In words: Diffusion technique, inhibition zone on agar. In kind it is cell-based, Salmonella choleraesuis. The note with it: 1:10 dilution of aqueous hibiscus extract, 10 μL on plate, 35±1° C., 24 h. Here is the method: as §2, §3
The subject of a further data set is S. sonnei. In words: Diffusion technique, inhibition zone on agar. The data set is classed as cell-based, Shigella sonnei. The note with it: 1:10 dilution of aqueous hibiscus extract, 10 μL on plate, 35±1° C., 24 h. On the procedure: as §2, §3
The subject of the next data set is Enteroinvasive E. coli. In words: Diffusion technique, inhibition zone on agar. In kind it is cell-based, Escherichia coli. The note with it: 1:10 dilution of aqueous hibiscus extract, 10 μL on plate, 35±1° C., 24 h. On the procedure: as §2, §3
The test system of a further data set is Enterapathogenic E. coli. In words: Diffusion technique, inhibition zone on agar. The data set is classed as cell-based, Escherichia coli. The note with it: 1:10 dilution of aqueous hibiscus extract, 10 μL on plate, 35±1° C., 24 h. Here is the method: as §2, §3
In another data set the test system is E. coli. In words: Diffusion technique, inhibition zone on agar. In kind it is cell-based, Escherichia coli. The note with it: 1:10 dilution of aqueous hibiscus extract, 10 μL on plate, 35±1° C., 24 h. Here is the method: as §2, §3
Another data set relates to Enterotoxigenic E. coli. The data set can be described thus: Diffusion technique, inhibition zone on agar. The data set is classed as cell-based, Escherichia coli. The note with it: 1:10 dilution of aqueous hibiscus extract, 10 μL on plate, 35±1° C., 24 h. Here is the method:
as §2, §3

In another data set the test system is P. aeruginosa. In words: Diffusion technique, inhibition zone on agar. The note with it: 1:10 dilution of aqueous hibiscus extract, 10 μL on plate, 35±1° C., 24 h. The data set is classed as cell-based, Pseudomonas aeruginosa. Here is the method:
as §2, §3

In a further data set the test system is S. typhimurium. In words: Diffusion technique, inhibition zone on agar. The data set is classed as cell-based, Salmonella typhimurium. The note with it: 1:10 dilution of aqueous hibiscus extract, 10 μL on plate, 35±1° C., 24 h. On the procedure: as §2, §3
Where [1] appears, read: Table 9, hypochlorite 1,000 ppm.
Where [2] appears, read: Table 11, hypochlorite 10,000 ppm.
[3] abbreviates: Table 8, hypochlorite 1,000 ppm.
[4] abbreviates: Table 10, hypochlorite 10,000 ppm.

`C=CCN=C=S` [AITC]: the “decrease of S. Montevideo on tomato cuticle” value in the data set on S. Montevideo is listed as 8 Log.

Regarding `OCl` [Hypochlorite, sodium hypochlorite], the “structural damage of seeds” value in the data set with soybean seeds (FIGS. 2 and 4) was “structural damage”. Also, the “decrease of the sprout yield” value in the data set on soybean seeds (hypochlorite, FIG. 4 (10,000 ppm sodium hypochlorite solution)) stood at 87.63%. For the same molecule, the “% of decrease” value in the data set on native flora of alfalfa (setting [1]) was found to be 6.95%; in the data set on native flora of alfalfa (setting [2]), 17.31%; in the data set on native flora of soybeans (setting [3]), 6.95%; with native flora of soybeans (setting [4]) it was 17.31%. Besides, the Decrease worked out at 0.18 Log10 CFU/g in the data set on native flora of alfalfa (setting [1]), 0.40 Log10 CFU/g in the data set with native flora of alfalfa (setting [2]), 0.18 Log10 CFU/g in the data set with native flora of soybeans (setting [3]) and 0.40 Log10 CFU/g with native flora of soybeans (setting [4]). The Final concentration with native flora of alfalfa (Table 9, hypochlorite 1,000 ppm, initial 3.59, N = 3) was found to be 3.41 ± 0.38 Log10 CFU/g; in the data set with native flora of alfalfa (Table 11, hypochlorite 10,000 ppm, initial 3.30-3.31, N = 3), 2.9 ± 0.56 Log10 CFU/g; in the data set on native flora of soybeans (Table 8, hypochlorite 1,000 ppm, initial 2.59 ± 1.19, N = 3), 2.41 ± 1.08 Log10 CFU/g; in the data set with native flora of soybeans (Table 10, hypochlorite 10,000 ppm, initial 2.31 ± 0.89, N = 3) it was 1.91 ± 1.23 Log10 CFU/g. The “reduction of Salmonella sp in sprouts” value in the data set on Salmonella sp was 1 Log10.

With `CC(=O)O` [acetic acid], the “concentration that has effects on toxigenic fungus” value in the data set on toxigenic fungus is listed as 0.5%. In addition, the “concentration that acts on most pathogens” value in the data set with most pathogens is recorded as 0.1%. Moreover, the “concentration that inhibits almost all flora” value in the data set with almost all flora was 1-2%.

For the molecule penicillin, the Inhibition diameter in the data set on V. cholerae O1 was 13 mm; in the data set on L. monocytogenes, 12 mm; in the data set on S. aureus, 13 mm; with S. flexneri, 12 mm; in the data set on S. choleraesuis, 12 mm; in the data set with S. sonnei it was 14 mm. Also, the Inhibition diameter with Enteroinvasive E. coli is 12 mm; with Enterapathogenic E. coli, 11 mm; in the data set with E. coli, 13 mm; in the data set with Enterotoxigenic E. coli, 12 mm; in the data set with P. aeruginosa, 13 mm; with S. typhimurium, 15 mm.
